Measurements taken from paper PMC7602263, “Exploring the Use of Helicogenic Amino Acids for Optimising Single Chain Relaxin-3 Peptide Agonists” (Biomedicines, 2020).
Read-outs that look alike come from different tables or passages of the source. Where a SMILES comes first, the peptide text is derived from it. Bridges are numbered along the chain shown (N, C = ends). Where no end group is shown, it is not given here. [ ]: non-standard residue; d: D form. S5 = C=CCCC[C@](C)(N)C(=O)O

Legend:
RXFP3 [1] = biological target: T1, RXFP3 (Homo sapiens, UniProt Q9NSD7); test: Competition binding assay with Eu-labelled R3 B1-22R on CHO-K1 cells stably expressing RXFP3; conditions: read-out: pKi [logM] (converted)
T1 construct: expressed in transfected cells; host or cells: CHO-K1
T1 sequence (Q9NSD7 1-469): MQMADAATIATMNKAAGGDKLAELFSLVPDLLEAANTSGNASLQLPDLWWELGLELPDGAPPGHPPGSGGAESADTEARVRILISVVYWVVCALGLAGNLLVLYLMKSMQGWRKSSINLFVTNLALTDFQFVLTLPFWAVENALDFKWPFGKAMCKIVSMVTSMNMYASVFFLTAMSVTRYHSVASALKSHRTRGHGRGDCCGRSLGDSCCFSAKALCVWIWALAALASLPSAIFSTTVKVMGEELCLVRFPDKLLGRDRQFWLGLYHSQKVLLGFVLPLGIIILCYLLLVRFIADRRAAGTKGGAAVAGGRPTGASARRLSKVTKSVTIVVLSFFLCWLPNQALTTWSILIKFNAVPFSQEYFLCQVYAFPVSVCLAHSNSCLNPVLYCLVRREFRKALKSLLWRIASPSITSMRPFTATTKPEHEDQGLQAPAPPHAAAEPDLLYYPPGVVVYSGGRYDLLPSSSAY
Method: Determination of binding affinity in this study was carried out as previously described. Briefly, CHO-K1 cells stably expressing RXFP3 [38] were treated with 5 nM Eu-labelled R3 B1-22R with increasing concentrations of novel analogues. Fluorescence measurement were recorded with 340 nm excitation and 614 nm emission wavelengths. Assays were conducted in triplicates and independently repeated at least three times. […] Statistical analyses were conducted using 1-way ANOVA with uncorrected Fisher’s least square difference in GraphPad Prism 8.0.
(§1) To determine their binding affinity, the ability of increasing concentration of analogues to compete with europium labelled R3 B1-22R were measured using CHO cells stably expressing RXFP3 [37]. Their potency at RXFP3 was measured by inhibition of cAMP accumulation induced by forskolin, as RXFP3 couples to an inhibitory G-protein.

RXFP3 [2] = biological target: T1, RXFP3; test: cAMP activity assay: inhibition of forskolin-induced cAMP accumulation in CHO-K1 cells stably expressing RXFP3; assay type: cell-based; conditions: CHO-K1 cells stably expressing RXFP3; inhibition of cAMP accumulation stimulated by 5 μM forskolin; mean ± SEM, triplicates, three independent experiments; SEM
Method: CHO-KI cells stably expressing RXFP3 were used to study the ability of the novel analogues to inhibit forskolin-induced cAMP accumulation. Assays were conducted as previously described. Briefly, 5 μM forskolin was used to stimulate the cells and increasing concentrations of the novel analogues were added to measure the dose-dependent reduction in the cAMP response via activation of the Gi/o-coupled RXFP3. Each analogue was tested in triplicates and each experiment was independently repeated three times. Data are presented as mean ± SEM and were analysed using GraphPad Prism 8.0. Statistical analyses were conducted using 1-way ANOVA and uncorrected Fisher’s least square difference.
as §1

RXFP3 [3] = biological target: T1, RXFP3; parameters: method as in 2 sources, one per row (each row's own in cited_ref): ref [37] = [37]; PMID 25792111; doi:10.1007/s00726-015-1961-x; 37. Haugaard-Kedström L.M. Wong L.L. Bathgate R.A. Rosengren K.J. Synthesis and pharmacological characterization of a europium-labelled single-chain antagonist for binding studies of the relaxin-3 rec ||| ref [28] = [28]; PMID 27464307; doi:10.1021/acs.jmedchem.6b00265; 28. Hojo K. Hossain M.A. Tailhades J. Shabanpoor F. Wong L.L. Ong-Palsson E.E. Kastman H.E. Ma S.K. Gundlach A.L. Rosengren K.J. Development of a single-chain peptide agonist of the relaxin-3 receptor; conditions: read-out: Kd for Eu-R3 B1-22R; Kd of the Eu-labelled tracer at RXFP3, used to calculate pKi values; assay as previously described; ref [37]; cited from earlier work

Ki (RXFP3 [1]; SEM) [nM]	EC50 (RXFP3 [2]) [nM]	Ki (RXFP3 [1]) [nM]	Molecule	Kd (RXFP3 [3]) [nM]
933	41.7		C=CCCC[C@](C)(NC(=O)[C@H](CCCNC(=N)N)NC(=O)CNC(=O)[C@H](CO)NC(C)=O)C(=O)N[C@@H](Cc1ccccc1)C(=O)N[C@H](C(=O)N[C@@H](CCCNC(=N)N)C(=O)N[C@@](C)(CCCC=C)C(=O)N[C@H](C(=O)N[C@H](C(=O)N[C@@H](Cc1ccccc1)C(=O)N[C@H](C(=O)N[C@@H](CO)C(=O)NCC(=O)NCC(=O)N[C@@H](CO)C(=O)N[C@@H](CCCNC(=N)N)C(=O)N[C@@H](Cc1c[nH]c2ccccc12)C(=O)O)[C@@H](C)O)[C@@H](C)CC)C(C)C)[C@@H](C)CC [Analogue 11] (HELM PEPTIDE1{[ac].S.G.R.[C=CCCC[C@](C)(N[*:1])C(=O)[*:2]].F.I.R.[C=CCCC[C@](C)(N[*:1])C(=O)[*:2]].V.I.F.T.S.G.G.S.R.W}$$$$V2.0)	
182	6.46		CC[C@H](C)[C@@H]1NC(=O)[C@H](Cc2ccccc2)NC(=O)[C@@](C)(NC(=O)[C@H](CCCNC(=N)N)NC(=O)CNC(=O)[C@H](CO)NC(=O)[C@H](CCCCN)NC(=O)[C@H](CCCCN)NC(=O)[C@H](CCCCN)NC(=O)[C@@H](N)CCCCN)CCCC=CCCC[C@@](C)(C(=O)N[C@H](C(=O)N[C@H](C(=O)N[C@@H](Cc2ccccc2)C(=O)N[C@H](C(=O)N[C@@H](CO)C(=O)NCC(=O)NCC(=O)N[C@@H](CO)C(=O)N[C@@H](CCCNC(=N)N)C(=O)N[C@@H](Cc2c[nH]c3ccccc23)C(=O)O)[C@@H](C)O)[C@@H](C)CC)C(C)C)NC(=O)[C@H](CCCNC(=N)N)NC1=O [Analogue 12] (H-KKKKSGR[S5]FIR[S5]VIFTSGGSRW-OH; staple 8-12)	
	6170	> 10000	CC[C@H](C)[C@@H]1NC(=O)[C@H](Cc2ccccc2)NC(=O)[C@@H](NC(=O)[C@H](CCCNC(=N)N)NC(=O)CNC(=O)[C@@H](N)CO)CSCC(=O)CSC[C@@H](C(=O)N[C@H](C(=O)N[C@H](C(=O)N[C@@H](Cc2ccccc2)C(=O)N[C@H](C(=O)N[C@@H](CO)C(=O)NCC(=O)NCC(=O)N[C@@H](CO)C(=O)N[C@@H](CCCNC(=N)N)C(=O)N[C@@H](Cc2c[nH]c3ccccc23)C(=O)O)[C@@H](C)O)[C@@H](C)CC)C(C)C)NC(=O)[C@H](CCCNC(=N)N)NC1=O [Analogue 14] (HELM PEPTIDE1{S.G.R.C.F.I.R.C.V.I.F.T.S.G.G.S.R.W}|CHEM1{[O=C(C[*:1])C[*:2]]}$PEPTIDE1,CHEM1,4:R3-1:R1|PEPTIDE1,CHEM1,8:R3-1:R2$$$V2.0)	
4790	4790		CC[C@H](C)[C@@H]1NC(=O)[C@H](Cc2ccccc2)NC(=O)[C@@H](NC(=O)[C@H](CCCNC(=N)N)NC(=O)CNC(=O)[C@H](CO)NC(C)=O)CSCC(=O)CSC[C@@H](C(=O)N[C@H](C(=O)N[C@H](C(=O)N[C@@H](Cc2ccccc2)C(=O)N[C@H](C(=O)N[C@@H](CO)C(=O)NCC(=O)NCC(=O)N[C@@H](CO)C(=O)N[C@@H](CCCNC(=N)N)C(=O)N[C@@H](Cc2c[nH]c3ccccc23)C(=O)O)[C@@H](C)O)[C@@H](C)CC)C(C)C)NC(=O)[C@H](CCCNC(=N)N)NC1=O [Analogue 15] (HELM PEPTIDE1{[ac].S.G.R.C.F.I.R.C.V.I.F.T.S.G.G.S.R.W}|CHEM1{[O=C(C[*:1])C[*:2]]}$PEPTIDE1,CHEM1,5:R3-1:R1|PEPTIDE1,CHEM1,9:R3-1:R2$$$V2.0)	
1000	1050		CC[C@H](C)[C@@H]1NC(=O)[C@H](Cc2ccccc2)NC(=O)[C@@H](NC(=O)[C@H](CCCNC(=N)N)NC(=O)CNC(=O)[C@@H](N)CO)CSCc2cccc(c2)CSC[C@@H](C(=O)N[C@H](C(=O)N[C@H](C(=O)N[C@@H](Cc2ccccc2)C(=O)N[C@H](C(=O)N[C@@H](CO)C(=O)NCC(=O)NCC(=O)N[C@@H](CO)C(=O)N[C@@H](CCCNC(=N)N)C(=O)N[C@@H](Cc2c[nH]c3ccccc23)C(=O)O)[C@@H](C)O)[C@@H](C)CC)C(C)C)NC(=O)[C@H](CCCNC(=N)N)NC1=O [Analogue 16] (HELM PEPTIDE1{S.G.R.C.F.I.R.C.V.I.F.T.S.G.G.S.R.W}|CHEM1{[c1cc(C[*:1])cc(C[*:2])c1]}$PEPTIDE1,CHEM1,4:R3-1:R1|PEPTIDE1,CHEM1,8:R3-1:R2$$$V2.0)	
1050	851		CC[C@H](C)[C@@H]1NC(=O)[C@H](Cc2ccccc2)NC(=O)[C@@H](NC(=O)[C@H](CCCNC(=N)N)NC(=O)CNC(=O)[C@H](CO)NC(C)=O)CSCc2cccc(c2)CSC[C@@H](C(=O)N[C@H](C(=O)N[C@H](C(=O)N[C@@H](Cc2ccccc2)C(=O)N[C@H](C(=O)N[C@@H](CO)C(=O)NCC(=O)NCC(=O)N[C@@H](CO)C(=O)N[C@@H](CCCNC(=N)N)C(=O)N[C@@H](Cc2c[nH]c3ccccc23)C(=O)O)[C@@H](C)O)[C@@H](C)CC)C(C)C)NC(=O)[C@H](CCCNC(=N)N)NC1=O [Analogue 17] (HELM PEPTIDE1{[ac].S.G.R.C.F.I.R.C.V.I.F.T.S.G.G.S.R.W}|CHEM1{[c1cc(C[*:1])cc(C[*:2])c1]}$PEPTIDE1,CHEM1,5:R3-1:R1|PEPTIDE1,CHEM1,9:R3-1:R2$$$V2.0)	
			Eu-R3 B1-22R: europium-labelled single-chain antagonist used as tracer in the RXFP3 binding assay (RAAPYGVRLSGREFIRAVIFTSR; also: europium chelate label, attachment site not given here)	27.9 ± 9.4
